In assay [1] the test system is Mycobacterium tuberculosis. As to the kind of experiment: Antitubercular activity against Mycobacterium tuberculosis H37Ra after 5 days by micro Alamar blue essay. Particulars: 120 h. In kind it is functional. On the technique in general: Alamar Blue is a resazurin reagent that responds to reducing activity.
The test system of assay [2] is Mycobacterium tuberculosis. In words: Antitubercular activity against Mycobacterium tuberculosis H37Rv after 30 days by agar microdilution method. In kind it is functional.

Converted amounts (≈) assume the structure as drawn.

Turning to `COC1=C(OC)C(O)(CCn2ccnc2)N(Cc2ccccc2)C1=O` (centres undefined), the MIC in assay [1] was more than 12.5 µg/mL; in assay [2], more than 25 µg/mL.
In the case of `COC1=C(OC)C(=CCn2cnc3ccccc32)OC1=O`, the results for the minimum inhibitory concentration (MIC) in assay [1] and in assay [2] were more than 12.5 µg/mL and more than 25 µg/mL, respectively.
For `COC1=C(OC)/C(=C/Cn2ccnc2)OC1=O`, the MIC is more than 12.5 µg/mL in assay [1] and more than 25 µg/mL in assay [2].
Consider `COC1=C(OC)/C(=C/Cn2cnc3c(N)ncnc32)OC1=O`, for which the minimum inhibitory concentration (MIC) in assay [1] is more than 12.5 µg/mL; in assay [2] it was more than 25 µg/mL.
For the compound `NNC(=O)c1ccncc1` [ISONIAZID], in assay [2], inhibition of growth (MIC) required 0.65 µg/mL (≈ 4.74 µM).

As usually defined, the MIC is the lowest concentration that inhibits growth of the organism. Read a low MIC as a more susceptible organism.

The values are drawn from ChEMBL document CHEMBL3045900, “Synthesis and antitubercular activity of nucleoside analogs based on L-ascorbic acid and bases” (2008).
